What was measured:
[1] = tested on: doubled haploid embryos; experiment: Potting rate and root growth, metcamifen post-treatment during germination; format: in vivo, maize; settings: for Potting Rate Mean: post-treatment in germination media (2.5 g/L Gelzan)
Protocol: (§1) As used herein, the term “potted rate” or “potting rate” refers to the percent of germinated embryos successfully transferred to soil from total treated haploid embryos. The “potted rate” is used as an indication of plant health in monitoring the success of recovery and growth after treatment of haploids. As used herein, the term “transplant rate” refers to the survival of healthy plants after embryos were germinated and transferred to soil.
Doubled haploid embryos were treated with metcamifen during germination. Metcamifen was tested in the germination media at 0, 5, and 10 mg/L after colchicine treatment completion for 24 or 48 hours. The germination media comprised Gelzan at a concentration of 3.5 g/L. Four genotypes were tested representing two heterotic groups. […] The percent potting rate was not increased as result of these post-treatments. […] This led to a looping of the roots. A reduction in Gelzan concentration from 3.5 g/L to 2.5 g/L was tested (comparison data not presented here). The experiments were then carried out with 2.5 g/L Gelzan for metcamifen post-treatments while the control (0 metcamifen) contained 3.5 g/L Gelzan. Metcamifen was tested as 0, 5, 10 and 20 mg/L after colchicine treatment completion for 24 and 48 hours. The reduction in Gelzan of the metcamifen post-treatments led to a higher percent potting rate (see Table 5).

[2] = tested on: GST27; experiment: GST27 induction, metcamifen pre-treatment of isolated embryos; format: cell-based, maize; settings: for GST27 before doubling, Mean: embryo pre-treatment 10 mg/L in MS media; for GST27 Mean: embryo pre-treatment in MS media
Protocol: (§2) For the examples below, GST27 was used as a quick indicator for treatment effectiveness.
(§3) Embryos from maize ears were isolated and treated with metcamifen prior to a colchicine doubling treatment. Isolated embryos plated on filter paper were pre-treated with a formulation of metcamifen at concentrations of 0, 10, 100, and 1000 mg/L in Murashige and Skoog Medium (MS media) for a duration of 1, 3, 5, or 7 days at 6° C. with 150 PAR light. GST27 induction was measured after pre-treatment at each time point and again at the end of the colchicine treatment. Resulting embryos were germinated, and the percentage of embryos successfully transferred to soil (percent potted rate) was measured as an indicator of plant health and pre-treatment effectiveness. GST27 was induced by metcamifen at a medium level ([…] of TSP), but higher than ear pre-treatment that was less than 10 ng/ml of TSP.
The addition of 10% DMSO in the metcamifen formulation at 10, 100, and 1000 mg/L in the MS media was tested to potentially increase the uptake of metcamifen. This test was done at temperatures of both 6° C. and 20° C. over a course of 0 to 4 days. There was no increase in GST27 expression with the 10% DMSO addition at either temperature.
(§4) Embryo pre-treatment with metcamifen at 10 mg/L was tested at temperatures of 6° C. and 20° C. for 1 day to measure the impact of temperature on embryo health.

[3] = tested on: embryos from maize ears; experiment: Potted rate after metcamifen pre-treatment of isolated embryos; format: in vivo
Description: as §1, §3, §4

[4] = tested on: GST27; experiment: GST27 induction, metcamifen co-treatment of isolated embryos during colchicine doubling; format: cell-based, maize; settings: for GST27 Induction Mean: co-treatment with colchicine
Protocol: as §2
Isolated embryos were treated with metcamifen during colchicine doubling (also referred to as co-treatment). Metcamifen was added in the colchicine co-treatment media (a.k.a. doubling media) as a formulation at concentrations of 0, 200, 400, 800, 1200 mg/L. Metcamifen concentrations tested for a 24-hour duration ranged from 0-1000 mg/L. Metcamifen concentrations tested for a 48-hour condition ranged from 0-1200 mg/L. Three to four genotypes representing two heterotic groups were tested.
Initial testing on three genotypes included co-treatment of metcamifen and colchicine in Gelzan media at 28° C. with 150 PAR light at concentrations of 0, 200, and 1000 mg/L to identify a range of working concentrations. The 200 and 1000 mg/L concentrations induced similar GST27 expression levels for both the 24- and 48-hour durations. The resulting induction was higher (400 ng/mg TSP GST27) than recorded with pre-treatments of ears or isolated embryos. […] Metcamifen co-treatment of isolated embryos optimization continued by testing levels of 0, 400, 600, and 800 mg/L for 24 and 48 hours with 4 genotypes across 2 heterotic groups. GST induction (ng/mg TSP) was measured after metcamifen co-treatment. […] The percent potted rate after metcamifen co-treatment was similar for both time durations when sorted by genotype or heterotic group.

[5] = tested on: doubled haploids; experiment: Potting rate, thiamethoxam post-treatment during germination; format: in vivo, maize; settings: 14-21 days
Description: as §1
TMX was applied to doubled haploids by adding it to the germination media during the germination process. TMX was tested in 3 genotypes, in triplicate, with concentrations ranging from […], and the post-treatments incubated for 14 to 21 days (the normal duration of the regeneration period before transplant). The effect on potting rate was evaluated (see Table 12); no plants were advanced for transplant rate assessments due to poor germination.

CNC(=O)Nc1ccc(S(=O)(=O)NC(=O)c2ccccc2OC)cc1 [Metcamifen, metcamifen]
percent potting rate ([1]; post-treatment 5 and 10 mg/L, 3.5 g/L Gelzan, 24 or 48 hours): not increased
Potting Rate Mean ([1]; 5 mg/L, Duration 24 hours): 69%
Potting Rate Mean ([1]; 5 mg/L, Duration 48 hours): 18%
Potting Rate Mean ([1]; 10 mg/L, Duration 24 hours): 62%
Potting Rate Mean ([1]; 10 mg/L, Duration 48 hours): 24%
Potting Rate Mean ([1]; 20 mg/L, Duration 24 hours): 51%
Potting Rate Mean ([1]; 20 mg/L, Duration 48 hours): 23%
GST27 induction in comparison to the control and other doses ([2]; 10 mg/L, all time points, 6° C. and 20° C., DMSO test): best GST27 induction
GST27 expression with 10% DMSO addition ([2]; 10, 100, 1000 mg/L in MS media, 6° C. and 20° C., 0 to 4 days): no increase
GST27 before doubling, Mean ([2]; 1 day, 6° C.): 8.83 ng/mg TSP
GST27 before doubling, Mean ([2]; 1 day, 20° C.): 140 ng/mg TSP
GST27 Mean ([2]; 10 mg/L, 1 day, 6° C.): 9 ng/mg TSP
GST27 Mean ([2]; 10 mg/L, 3 days, 6° C.): 14 ng/mg TSP
GST27 Mean ([2]; 10 mg/L, 5 days, 6° C.): 37 ng/mg TSP
GST27 Mean ([2]; 10 mg/L, 7 days, 6° C.): 75 ng/mg TSP
GST27 Mean ([2]; 100 mg/L, 1 day, 6° C.): 21 ng/mg TSP
GST27 Mean ([2]; 100 mg/L, 3 days, 6° C.): 30 ng/mg TSP
GST27 Mean ([2]; 100 mg/L, 5 days, 6° C.): 61 ng/mg TSP
GST27 Mean ([2]; 100 mg/L, 7 days, 6° C.): 92 ng/mg TSP
GST27 Mean ([2]; 1000 mg/L, 1 day, 6° C.): 11 ng/mg TSP
GST27 Mean ([2]; 1000 mg/L, 3 days, 6° C.): 71 ng/mg TSP
GST27 Mean ([2]; 1000 mg/L, 5 days, 6° C.): 60 ng/mg TSP
GST27 Mean ([2]; 1000 mg/L, 7 days, 6° C.): 108 ng/mg TSP
GST27 induced by metcamifen (medium level) ([2]; embryo pre-treatment, 10-1000 mg/L, 1-7 days, 6° C.): < 100 ng/ml of TSP
Potted Rate Mean ([3]; embryo pre-treatment 10 mg/L in MS media, 1 day, 6° C. (Table 3 experiment)): 62%
Potted Rate Mean ([3]; embryo pre-treatment 10 mg/L in MS media, 1 day, 6° C. (Table 3 experiment), listed as metcamifen): significantly higher potting rate than the control
Potted Rate Mean ([3]; embryo pre-treatment 10 mg/L in MS media, 1 day, 20° C.): 23%
Potted Rate Mean ([3]; embryo pre-treatment 10 mg/L in MS media, 1 day, 20° C., listed as metcamifen): 2%
Potted Rate Mean ([3]; embryo pre-treatment in MS media, 10 mg/L, 1 day, 6° C.): 46%
Potted Rate Mean ([3]; embryo pre-treatment in MS media, 10 mg/L, 3 days, 6° C.): 38%
Potted Rate Mean ([3]; embryo pre-treatment in MS media, 10 mg/L, 5 days, 6° C.): 4%
Potted Rate Mean ([3]; embryo pre-treatment in MS media, 10 mg/L, 7 days, 6° C.): 27%
Potted Rate Mean ([3]; embryo pre-treatment in MS media, 100 mg/L, 1 day, 6° C.): 12%
Potted Rate Mean ([3]; embryo pre-treatment in MS media, 100 mg/L, 3 days, 6° C.): 12%
Potted Rate Mean ([3]; embryo pre-treatment in MS media, 100 mg/L, 5 days, 6° C.): 16%
Potted Rate Mean ([3]; embryo pre-treatment in MS media, 100 mg/L, 7 days, 6° C.): 24%
Potted Rate Mean ([3]; embryo pre-treatment in MS media, 1000 mg/L, 1 day, 6° C.): 10%
Potted Rate Mean ([3]; embryo pre-treatment in MS media, 1000 mg/L, 3 days, 6° C.): 16%
Potted Rate Mean ([3]; embryo pre-treatment in MS media, 1000 mg/L, 5 days, 6° C.): 17%
Potted Rate Mean ([3]; embryo pre-treatment in MS media, 1000 mg/L, 7 days, 6° C.): 17%
GST27 induction among 0, 400, 600, 800 mg/L ([4]; 800 mg/L, 48-hour co-treatment, 4 genotypes): highest induction
GST27 Induction Mean ([4]; 200 mg/L, 24 hours): 383.25 ng/mg TSP
GST27 Induction Mean ([4]; 400 mg/L, 24 hours): 396.13 ng/mg TSP
GST27 Induction Mean ([4]; 400 mg/L, 48 hours): 609.50 ng/mg TSP
GST27 Induction Mean ([4]; 800 mg/L, 24 hours): 489.38 ng/mg TSP
GST27 Induction Mean ([4]; 800 mg/L, 48 hours): 666.50 ng/mg TSP
GST27 Induction Mean ([4]; 1200 mg/L, 48 hours): 796.63 ng/mg TSP
GST27 induction ([4]; initial testing, 200 and 1000 mg/L, 24- and 48-hour, Gelzan media, 28° C., three genotypes): 400 ng/mg TSP

CN1COCN(Cc2cnc(Cl)s2)/C1=N\[N+](=O)[O-] [TMX, thiamethoxam]
Potting Rate Mean ([5]; TMX 0.5 g/L): 53%
Potting Rate Mean ([5]; TMX 1 g/L): 50%
Potting Rate Mean ([5]; TMX 1.5 g/L): 27%
Potting Rate Mean ([5]; TMX 5 g/L): 3%
Potting Rate Mean ([5]; TMX 12 g/L): 0%
